Measurements reported in article PMC7127696 (Bioorganic & Medicinal Chemistry, 2015).
Like-named read-outs stand apart in the source and are kept apart here.

Columns and labels:
Para-influenza-3 virus = assay: CPE reduction assay, para-influenza-3 virus in Vero cells; format: cell-based; details: for EC50: Vero, read-out: Antiviral EC50 value, Para-influenza-3 virus
Reovirus-1 = assay: CPE reduction assay, reovirus-1 in Vero cells; format: cell-based; details: for EC50: Vero, read-out: Antiviral EC50 value, Reovirus-1
[1] = test system: Respiratory syncytial virus; assay: CPE reduction assay, respiratory syncytial virus in HeLa cells; format: cell-based; details: for Selectivity index (ratio of MCC to antiviral EC50), Respiratory syncytial virus: value in square brackets
Sindbis virus = assay: CPE reduction assay, Sindbis virus in Vero cells; format: cell-based; details: for EC50: Sindbis virus, Vero, read-out: Antiviral EC50 value, Sindbis virus
Vero cells = details: microscopy
[2] = test system: HEL: human embryonic lung fibroblast cells; details: microscopy
[3] = test system: MDCK: Madin-Darby canine kidney cells; details: microscopy
HeLa cells = details: microscopy
Punta Toro virus = assay: CPE reduction assay, Punta Toro virus in Vero cells; format: cell-based
[4] = test system: Vesicular stomatitis virus; format: cell-based
Coxsackie B4 virus [5] = assay: CPE reduction assay, Coxsackie B4 virus in HeLa cells; format: cell-based
Coxsackie B4 virus [6] = assay: CPE reduction assay, Coxsackie B4 virus in Vero cells; format: cell-based
[7] = CPE inhibition, microscopy, mean ± SEM of three tests
[8] = Vero cells, CPE inhibition, microscopy
[9] = Vero cells, CPE inhibition, microscopy, mean ± SEM of three tests
[10] = Vero cells, value in square brackets

Row | Compound | EC50 (Para-influenza-3 virus) | EC50 (Reovirus-1) | MCC (compound concentration causing minimal changes in cell morphology) (Vero cells) | MCC (compound concentration causing minimal changes in cell morphology) [2] [μg/mL] | MCC (compound concentration causing minimal changes in cell morphology) [3] [μg/mL] | MCC (compound concentration causing minimal changes in cell morphology) (HeLa cells) [μg/mL] | further results
1 | CNC(=S)NNC(=O)c1[nH]c2ccc(F)cc2c1-c1ccccc1 [Compound 6a, 1-((5-Fluoro-3-phenyl-1H-indol-2-yl)carbonyl)-4-methyl-3-thiosemicarbazide] | > 100 µg/mL | > 100 µg/mL | – | – | – | – | –
2 | CCNC(=S)NNC(=O)c1[nH]c2ccc(F)cc2c1-c1ccccc1 [Compound 6b, 4-Ethyl-1-((5-fluoro-3-phenyl-1H-indol-2-yl)carbonyl)-3-thiosemicarbazide] | > 100 µg/mL | > 100 µg/mL | – | – | – | – | Selectivity index (ratio of MCC to antiviral EC50), Respiratory syncytial virus [1]: ≥ 5; EC50 (Sindbis virus): 3.2 ± 0.8 µg/mL
3 | CCCNC(=S)NNC(=O)c1[nH]c2ccc(F)cc2c1-c1ccccc1 [Compound 6c, 1-((5-Fluoro-3-phenyl-1H-indol-2-yl)carbonyl)-4-propyl-3-thiosemicarbazide] | > 100 µg/mL | > 100 µg/mL | 100 μg/mL | – | – | – | Selectivity index (ratio of MCC to antiviral EC50), Respiratory syncytial virus [1]: ≥ 9
4 | C=CCNC(=S)NNC(=O)c1[nH]c2ccc(F)cc2c1-c1ccccc1 [Compound 6d, 4-Allyl-1-((5-fluoro-3-phenyl-1H-indol-2-yl)carbonyl)-3-thiosemicarbazide] | > 100 µg/mL | > 100 µg/mL | – | – | – | – | Selectivity index (ratio of MCC to antiviral EC50), Respiratory syncytial virus [1]: ≥ 5
5 | CCCCNC(=S)NNC(=O)c1[nH]c2ccc(F)cc2c1-c1ccccc1 [Compound 6e, 4-Butyl-1-((5-fluoro-3-phenyl-1H-indol-2-yl)carbonyl)-3-thiosemicarbazide] | > 100 µg/mL | > 100 µg/mL | – | >10 | – | – | –
6 | O=C(NNC(=S)NCc1ccccc1)c1[nH]c2ccc(F)cc2c1-c1ccccc1 [Compound 6f, 4-Benzyl-1-((5-fluoro-3-phenyl-1H-indol-2-yl)carbonyl)-3-thiosemicarbazide] | > 100 µg/mL | > 100 µg/mL | – | >10 | >10 | – | –
7 | O=C(NNC(=S)NCCc1ccccc1)c1[nH]c2ccc(F)cc2c1-c1ccccc1 [Compound 6g, 1-((5-Fluoro-3-phenyl-1H-indol-2-yl)carbonyl)-4-phenethyl-3-thiosemicarbazide] | > 100 µg/mL | > 100 µg/mL | – | – | – | – | –
8 | CN1C(=O)CS/C1=N\NC(=O)c1[nH]c2ccc(F)cc2c1-c1ccccc1 [Compound 7a, 5-Fluoro-N′-(3-methyl-4-oxo-1,3-thiazolidinon-2-ylidene)-3-phenyl-1H-indol-2-carbohydrazide] | > 100 µg/mL | > 100 µg/mL | – | >100 | 100 | 100 | –
9 | CCN1C(=O)CS/C1=N\NC(=O)c1[nH]c2ccc(F)cc2c1-c1ccccc1 [Compound 7b, N′-(3-Ethyl-4-oxo-1,3-thiazolidinon-2-ylidene)-5-fluoro-3-phenyl-1H-indol-2-carbohydrazide] | > 100 µg/mL | > 100 µg/mL | – | >100 | 100 | >100 | –
10 | CCCN1C(=O)CS/C1=N\NC(=O)c1[nH]c2ccc(F)cc2c1-c1ccccc1 [Compound 7c, 5-Fluoro-N′-(4-oxo-3-propyl-1,3-thiazolidinon-2-ylidene)-3-phenyl-1H-indol-2-carbohydrazide] | > 100 µg/mL | > 100 µg/mL | >100 μg/mL | >100 | >100 | >100 | –
11 | C=CCN1C(=O)CS/C1=N\NC(=O)c1[nH]c2ccc(F)cc2c1-c1ccccc1 [Compound 7d, N′-[(2Z)-3-Allyl-4-oxo-1,3-thiazolidinon-2-ylidene]-5-fluoro-3-phenyl-1H-indol-2-carbohydrazide] | > 100 µg/mL | > 100 µg/mL | >100 μg/mL | >100 | 100 | >100 | –
12 | CCCCN1C(=O)CS/C1=N\NC(=O)c1[nH]c2ccc(F)cc2c1-c1ccccc1 [Compound 7e, N′-(3-Butyl-4-oxo-1,3-thiazolidinon-2-ylidene)-5-fluoro-3-phenyl-1H-indol-2-carbohydrazide] | > 100 µg/mL | > 100 µg/mL | >10 μg/mL | >10 | >10 | >100 | –
13 | O=C(N/N=C1\SCC(=O)N1Cc1ccccc1)c1[nH]c2ccc(F)cc2c1-c1ccccc1 [Compound 7f, N′-(3-Benzyl-4-oxo-1,3-thiazolidinon-2-ylidene)-5-fluoro-3-phenyl-1H-indol-2-carbohydrazide] | > 100 µg/mL | > 100 µg/mL | ⩾10 μg/mL | >10 | >10 | >100 | –
14 | O=C(N/N=C1\SCC(=O)N1CCc1ccccc1)c1[nH]c2ccc(F)cc2c1-c1ccccc1 [Compound 7g, 5-Fluoro-N′-(4-oxo-3-phenethyl-1,3-thiazolidinon-2-ylidene)-3-phenyl-1H-indol-2-carbohydrazide] | > 100 µg/mL | > 100 µg/mL | – | >10 | >10 | 100 | –
15 | NC(=O)c1ncn([C@@H]2O[C@H](CO)[C@@H](O)[C@H]2O)n1 [Ribavirin, ribavirin, reference compound] | > 250 µM | > 250 µM | – | – | – | – | EC50 (Sindbis virus): 250 µM; EC50 (Punta Toro virus; Punta Toro virus, Vero, read-out: Antiviral EC50 value, Punta Toro virus): 50 µM; MCC (compound concentration causing minimal changes in cell morphology) (HeLa cells; ribavirin data in μM): >250 μM; MCC (compound concentration causing minimal changes in cell morphology) (Vero cells; ribavirin data in μM): >250 μM
16 | dextran sulfate [DS-5000] | – | – | >100 μg/mL | – | – | >100 | Antiviral EC50 value, Vesicular stomatitis virus [4]: 8.0 ± 3.1 [>12] μg/mL; Selectivity index (ratio of MCC to antiviral EC50), Vesicular stomatitis virus [4]: 8.0 ± 3.1 [>12]; Antiviral EC50 value, Coxsackie B4 virus (Coxsackie B4 virus [5]; [7]): ≥ 4 µg/mL; Selectivity index (ratio of MCC to antiviral EC50), Coxsackie B4 virus (Coxsackie B4 virus [5]; value in square brackets): ≥ 25; Antiviral EC50 value, Respiratory syncytial virus [1, 7]: 5.3 ± 3.3 µg/mL; Selectivity index (ratio of MCC to antiviral EC50), Respiratory syncytial virus [1]: > 19; Antiviral EC50 value, Para-influenza-3 virus (Para-influenza-3 virus; [8]): >100 µg/mL; Antiviral EC50 value, Reovirus-1 (Reovirus-1; [8]): >100 µg/mL; Antiviral EC50 value, Sindbis virus (Sindbis virus; [9]): 68 ± 32 µg/mL; Selectivity index (ratio of MCC to antiviral EC50), Sindbis virus (Sindbis virus; [10]): > 1.5; Antiviral EC50 value, Coxsackie B4 virus (Coxsackie B4 virus [6]; [7]): 40 ± 10 µg/mL; Selectivity index (ratio of MCC to antiviral EC50), Coxsackie B4 virus (Coxsackie B4 virus [6]; value in square brackets): > 2.5; Antiviral EC50 value, Punta Toro virus (Punta Toro virus; [9]): 20 ± 0 µg/mL; Selectivity index (ratio of MCC to antiviral EC50), Punta Toro virus (Punta Toro virus; [10]): > 5
